Source: article PMC5670239, “Structural basis for mutually exclusive co-transcriptional nuclear cap-binding complexes with either NELF-E or ARS2” (Nature Communications, 2017)

Biological target: T1, CBC (Homo sapiens, UniProt P52298)
T1 sequence (P52298 1-156): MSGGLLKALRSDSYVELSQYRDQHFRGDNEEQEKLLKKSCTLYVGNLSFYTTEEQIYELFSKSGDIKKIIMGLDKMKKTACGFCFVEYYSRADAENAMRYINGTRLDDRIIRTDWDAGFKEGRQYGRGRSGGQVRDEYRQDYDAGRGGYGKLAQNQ
T1 sequence (Q09161 20-790 partner): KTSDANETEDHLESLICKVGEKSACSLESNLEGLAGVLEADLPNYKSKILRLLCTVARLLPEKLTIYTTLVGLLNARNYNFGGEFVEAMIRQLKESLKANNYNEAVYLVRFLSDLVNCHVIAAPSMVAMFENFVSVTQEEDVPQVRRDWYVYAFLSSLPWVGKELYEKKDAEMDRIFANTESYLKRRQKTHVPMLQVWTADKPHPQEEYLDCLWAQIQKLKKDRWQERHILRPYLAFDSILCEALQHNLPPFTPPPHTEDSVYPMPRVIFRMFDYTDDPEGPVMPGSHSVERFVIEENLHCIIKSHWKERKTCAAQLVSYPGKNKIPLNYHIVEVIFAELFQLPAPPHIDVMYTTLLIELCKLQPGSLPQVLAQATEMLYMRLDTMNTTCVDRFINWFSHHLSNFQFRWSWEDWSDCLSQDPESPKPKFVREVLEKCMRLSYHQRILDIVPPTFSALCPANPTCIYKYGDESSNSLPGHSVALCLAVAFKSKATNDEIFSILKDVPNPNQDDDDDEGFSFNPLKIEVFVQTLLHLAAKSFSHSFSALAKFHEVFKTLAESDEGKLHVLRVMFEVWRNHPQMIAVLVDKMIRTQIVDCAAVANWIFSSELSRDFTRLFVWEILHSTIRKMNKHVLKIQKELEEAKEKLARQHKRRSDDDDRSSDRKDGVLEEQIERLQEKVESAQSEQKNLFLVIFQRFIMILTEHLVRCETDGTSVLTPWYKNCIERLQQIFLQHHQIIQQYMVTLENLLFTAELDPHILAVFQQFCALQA
Assay: ITC, binding to CBC without cap analogue
Settings: ITC (MicroCal ITC200), 25 °C, 20 mM HEPES, 120 mM NaCl, 2 mM TCEP, pH 7.8, single-site fit, no cap analogue pre-bound, mean ± SD of at least two independent experiments
Description: hARS2 isoform-4 (871 residues, UniProt:Q9BXP5-4, also known as isoform-e, NP_001122326) constructs (residues 147–871, 147–845, 763–871, 763–845, 827–871) hNELF-E (NM_002904.5) (244–380, 244–360) and hPHAX (NM_032177.3) (1–394, 103–294, 103–308, 103–327) were cloned into pETM11 (EMBL). Full-length hNELF-E (1–380) was cloned into pFASTBac and CBP20 into pETM30. Primers used are given in Supplementary Table 2. All constructs were expressed in E. coli Rosetta 2 (Novagen), except full-length NELF-E and CBP80ΔNLS (CBP80 with residues 1–19 deleted[2]), which were expressed in High Five insect cells (Life Technology). Cells were harvested and lysed by sonication in lysis buffer containing 50 mM HEPES, pH 7.8, 300 mM NaCl, 10% (v/v) glycerol, 5 mM β-mercaptoethanol. Lysates were clarified by centrifugation and applied on an equilibrated Ni-sepharose column (GE Healthcare), washed with 20 mM imidazole in lysis buffer, and eluted with 300 mM imidazole in lysis buffer. While dialysing into 20 mM HEPES, pH 7.8, 120 mM NaCl, 10% (v/v) glycerol, 5 mM β-mercaptoethanol, the N-terminal 6-histidine-tag was cleaved with His-tagged Tobacco Etch Virus (TEV) protease overnight in a ratio 1:100 mg TEV per mg protein. The cleaved protein was further purified first on Ni-sepharose to remove TEV and then using an anion exchange column (HiTrap Q, GE Healthcare) followed if necessary by a Heparin column (GE Healthcare). In both cases a NaCl gradient from 50 to 800 mM in 20 mM HEPES 7.8, 0.5 mM tris(2-carboxyethyl)phosphine was used. To reconstitute the CBC heterodimer, cleared His-tagged CBP20 lysate was first immobilised on a Ni-sepharose column. After washing the column with lysis buffer, the cleared CBP80 lysate was applied to the column and further purification steps performed as described above. To remove the access of CBP20 the flow through of the Ni-column after TEV cleavage was loaded on an anion exchange column (HiTrap Q, GE Healthcare) and CBC eluted by a NaCl gradient as described above. In the text we refer to CBP80ΔNLS and CBP80ΔNLS-CBP20 as CBP80 and CBC, respectively. […]

Kd: 100 nM
Kd (SD): 126 ± 45 nM
Compound: C[n+]1cn([C@@H]2O[C@H](COP(=O)(O)OP(=O)([O-])OP(=O)(O)O)[C@@H](O)[C@H]2O)c2nc(N)[nH]c(=O)c21 [m^7GTP]
